Test results published in ChEMBL document CHEMBL2346553, “Synthesis and evaluation of non-dimeric HCV NS5A inhibitors” (Bioorg Med Chem Lett, 2013).

How the values were obtained:
in vitro [1] = settings: human, pbmc
in vitro [2] = settings: human, HuH7 cells
Hepatitis C virus = experiment: microbe, parasite or virus in culture; settings: genotype 1b, Huh-7
in vitro [3] = settings: human, CEM cells
in vitro [4] = settings: chlorocebus sabaeus, Vero cells

| EC50 (Hepatitis C virus) [µM] | EC90 (Hepatitis C virus) [µM] | SMILES | CC50 (in vitro [1]) [µM] | CC50 (in vitro [2]) [µM] | CC50 (in vitro [3]) [µM] | CC50 (in vitro [4]) [µM] |
| --- | --- | --- | --- | --- | --- | --- |
| > 0.1 |  | COC(=O)N[C@H](C(=O)N1CCC[C@H]1c1ncc(-c2ccc(-c3ccccc3C(F)(F)F)cc2)[nH]1)C(C)C | 24 | > 1 | 75 | 13 |
| > 0.1 |  | COC(=O)N[C@H](C(=O)N1CCC[C@H]1c1ncc(-c2ccc(-c3cccc(C(F)(F)F)c3)cc2)[nH]1)C(C)C | 44 | > 1 | 32 | 12 |
| 0.005 | 0.017 | COC(=O)N[C@H](C(=O)N1CCC[C@H]1c1ncc(-c2ccc(-c3ccc(O)cc3)cc2)[nH]1)C(C)C | 70 | > 1 | 55 | 13 |
| > 0.1 |  | COC(=O)N[C@H](C(=O)N1CCC[C@H]1c1ncc(-c2ccc(-c3ccc(OC(F)(F)F)cc3)cc2)[nH]1)C(C)C | 11 | > 1 | 10 | 10 |
